Test results as given in the NIST ThermoML archive (doi:10.1016/j.jct.2005.11.003).
Numbers after ± are expanded uncertainties.

Tests used:
[1] = xn = mol fraction of the nth substance listed; conditions: 298.15 K, 101 kPa, Liquid
[2] = excess molar enthalpy (molar enthalpy of mixing); xn = mol fraction of the nth substance listed; conditions: 298.15 K, 101 kPa, Liquid

CCCCOC(=O)CCC [butyl butanoate] + ClCCCCl
[1]
Conditions | mass density [kg/m3]
x1 = 0.0357 | 1159.7 ± 0.7
x1 = 0.0715 | 1141.38 ± 0.67
x1 = 0.1103 | 1122.7 ± 0.65
x1 = 0.1503 | 1104.39 ± 0.63
x1 = 0.1936 | 1085.72 ± 0.61
x1 = 0.2376 | 1067.78 ± 0.59
x1 = 0.2869 | 1048.84 ± 0.57
x1 = 0.3371 | 1030.74 ± 0.55
x1 = 0.3921 | 1012.12 ± 0.53
x1 = 0.4496 | 993.89 ± 0.52
x1 = 0.5117 | 975.49 ± 0.52
x1 = 0.5785 | 957.03 ± 0.52
x1 = 0.6494 | 938.78 ± 0.52
x1 = 0.7262 | 920.43 ± 0.53
x1 = 0.8114 | 901.61 ± 0.53
x1 = 0.8978 | 884.02 ± 0.54

CCCCOC(=O)CCC [butyl butanoate] + ClCCCl
[1]
Conditions | mass density [kg/m3]
x1 = 0.0297 | 1221.83 ± 0.57
x1 = 0.0605 | 1198.84 ± 0.55
x1 = 0.0933 | 1176.2 ± 0.52
x1 = 0.1275 | 1153.91 ± 0.49
x1 = 0.1649 | 1131.5 ± 0.47
x1 = 0.2054 | 1109 ± 0.45
x1 = 0.2498 | 1086.2 ± 0.43
x1 = 0.2967 | 1064.01 ± 0.42
x1 = 0.3484 | 1041.64 ± 0.4
x1 = 0.4037 | 1019.73 ± 0.39
x1 = 0.4652 | 997.47 ± 0.39
x1 = 0.5324 | 975.45 ± 0.41
x1 = 0.605 | 953.73 ± 0.43
x1 = 0.6862 | 931.87 ± 0.46
x1 = 0.7785 | 909.66 ± 0.49
x1 = 0.8821 | 887.38 ± 0.52

ClCCCCCCl [1,5-dichloropentane] + CCCCOC=O
Conditions | excess molar enthalpy [kcal/mol] | mass density [kg/m3]
[1], x2 = 0.0616 | – | 1083.81 ± 0.67
[1], x2 = 0.126 | – | 1071.76 ± 0.72
[1], x2 = 0.1909 | – | 1059.46 ± 0.77
[1], x2 = 0.2522 | – | 1047.68 ± 0.82
[1], x2 = 0.3138 | – | 1035.64 ± 0.88
[1], x2 = 0.3757 | – | 1023.39 ± 0.93
[1], x2 = 0.4364 | – | 1011.18 ± 0.98
[1], x2 = 0.4966 | – | 998.9 ± 1
[1], x2 = 0.5548 | – | 986.84 ± 1.1
[1], x2 = 0.6137 | – | 974.47 ± 1.1
[1], x2 = 0.6701 | – | 962.48 ± 1.2
[1], x2 = 0.7247 | – | 950.68 ± 1.2
[1], x2 = 0.7822 | – | 938.09 ± 1.2
[1], x2 = 0.8374 | – | 925.86 ± 1.3
[1], x2 = 0.8906 | – | 913.92 ± 1.3
[1], x2 = 0.9443 | – | 901.66 ± 1.4
[2], x2 = 0.069 | 0.0113 ± 0.0011 | –
[2], x2 = 0.1384 | 0.0179 ± 0.00129 | –
[2], x2 = 0.2122 | 0.023 ± 0.00146 | –
[2], x2 = 0.2809 | 0.025 ± 0.00151 | –
[2], x2 = 0.3459 | 0.025 ± 0.00151 | –
[2], x2 = 0.4058 | 0.0233 ± 0.00146 | –
[2], x2 = 0.4619 | 0.0205 ± 0.00139 | –
[2], x2 = 0.4922 | 0.0168 ± 0.00127 | –
[2], x2 = 0.5374 | 0.0124 ± 0.00112 | –
[2], x2 = 0.5877 | 0.0111 ± 0.00108 | –
[2], x2 = 0.6417 | 0.00825 ± 0.001 | –
[2], x2 = 0.7001 | 0.00729 ± 0.00098 | –
[2], x2 = 0.7618 | 0.00571 ± 0.000908 | –
[2], x2 = 0.8234 | 0.00366 ± 0.00086 | –
[2], x2 = 0.8876 | 0.00206 ± 0.000813 | –
[2], x2 = 0.9487 | 0.00105 ± 0.000765 | –

ClCCCCCl [1,4-dichlorobutane] + CCCCOC(=O)CC
[1]
Conditions | mass density [kg/m3]
x2 = 0.0475 | 1117.36 ± 0.64
x2 = 0.0925 | 1102.34 ± 0.63
x2 = 0.1874 | 1072.01 ± 0.59
x2 = 0.239 | 1056.26 ± 0.58
x2 = 0.29 | 1041.21 ± 0.56
x2 = 0.3443 | 1025.65 ± 0.54
x2 = 0.4006 | 1010.07 ± 0.53
x2 = 0.5171 | 979.4 ± 0.52
x2 = 0.5798 | 963.71 ± 0.52
x2 = 0.6418 | 948.74 ± 0.52
x2 = 0.7075 | 933.4 ± 0.52
x2 = 0.8474 | 902.46 ± 0.53
x2 = 0.8829 | 894.96 ± 0.54
x2 = 0.9206 | 887.11 ± 0.54
x2 = 0.9575 | 879.61 ± 0.54

CCCCOC(=O)CCC [butyl butanoate] + ClCCCCCCl
[1]
Conditions | mass density [kg/m3]
x1 = 0.0481 | 1081.06 ± 0.6
x1 = 0.0957 | 1067.51 ± 0.59
x1 = 0.1451 | 1053.83 ± 0.57
x1 = 0.1939 | 1040.72 ± 0.56
x1 = 0.2465 | 1026.89 ± 0.55
x1 = 0.3533 | 1000.09 ± 0.52
x1 = 0.4105 | 986.32 ± 0.52
x1 = 0.5282 | 959.19 ± 0.52
x1 = 0.6536 | 932.02 ± 0.52
x1 = 0.7875 | 904.75 ± 0.53
x1 = 0.8568 | 891.25 ± 0.54

ClCCCCCCCl [1,6-dichlorohexane] + CCCCOC(=O)CC
[1]
Conditions | mass density [kg/m3]
x2 = 0.0591 | 1052.23 ± 1.1
x2 = 0.1161 | 1041.11 ± 1
x2 = 0.1728 | 1030.03 ± 0.97
x2 = 0.2284 | 1019.22 ± 0.93
x2 = 0.345 | 996.62 ± 0.85
x2 = 0.4083 | 984.38 ± 0.81
x2 = 0.4668 | 973.12 ± 0.78
x2 = 0.5258 | 961.74 ± 0.74
x2 = 0.6403 | 939.75 ± 0.68
x2 = 0.6994 | 928.38 ± 0.66
x2 = 0.7645 | 915.95 ± 0.63
x2 = 0.8173 | 905.83 ± 0.61
x2 = 0.8835 | 893.21 ± 0.58
x2 = 0.9423 | 882.05 ± 0.56

CCCCOC(=O)CC [butyl propanoate] + ClCCCl
[1]
Conditions | mass density [kg/m3]
x1 = 0.0334 | 1222.24 ± 0.57
x1 = 0.0679 | 1199.39 ± 0.55
x1 = 0.1032 | 1177.4 ± 0.52
x1 = 0.1419 | 1154.78 ± 0.5
x1 = 0.1821 | 1132.96 ± 0.48
x1 = 0.2255 | 1110.88 ± 0.46
x1 = 0.2719 | 1088.82 ± 0.44
x1 = 0.3218 | 1066.84 ± 0.43
x1 = 0.3754 | 1044.9 ± 0.41
x1 = 0.4321 | 1023.34 ± 0.4
x1 = 0.4959 | 1001.02 ± 0.4
x1 = 0.5617 | 979.72 ± 0.42
x1 = 0.636 | 957.49 ± 0.44
x1 = 0.7142 | 936.1 ± 0.46
x1 = 0.804 | 913.62 ± 0.49
x1 = 0.8938 | 893.14 ± 0.52

ClCCCCCCl [1,5-dichloropentane] + CCCCOC(=O)CC
[1]
Conditions | mass density [kg/m3]
x2 = 0.0528 | 1081.66 ± 0.6
x2 = 0.1047 | 1068.55 ± 0.59
x2 = 0.1575 | 1055.43 ± 0.57
x2 = 0.2116 | 1042.24 ± 0.56
x2 = 0.3217 | 1016.04 ± 0.54
x2 = 0.3799 | 1002.5 ± 0.52
x2 = 0.4359 | 989.71 ± 0.52
x2 = 0.5529 | 963.57 ± 0.52
x2 = 0.6167 | 949.63 ± 0.52
x2 = 0.6773 | 936.67 ± 0.52
x2 = 0.7411 | 923.24 ± 0.53
x2 = 0.8045 | 910.15 ± 0.53
x2 = 0.8667 | 897.51 ± 0.54
x2 = 0.9333 | 884.23 ± 0.54

ClCCCCCCl [1,5-dichloropentane] + CCCCOC(C)=O
[1]
Conditions | mass density [kg/m3]
x2 = 0.0558 | 1082.62 ± 0.62
x2 = 0.1119 | 1070.12 ± 0.62
x2 = 0.1697 | 1057.27 ± 0.62
x2 = 0.2268 | 1044.6 ± 0.62
x2 = 0.3432 | 1018.88 ± 0.62
x2 = 0.4608 | 993.04 ± 0.63
x2 = 0.5786 | 967.32 ± 0.66
x2 = 0.6957 | 941.92 ± 0.68
x2 = 0.8167 | 915.81 ± 0.7
x2 = 0.8757 | 903.13 ± 0.71
x2 = 0.9364 | 890.15 ± 0.73
